Measured values taken from ChEMBL document CHEMBL4359837, “Discovery of 2-(4-Chloro-3-(trifluoromethyl)phenyl)-N-(4-((6,7-dimethoxyquinolin-4-yl)oxy)phenyl)acetamide (CHMFL-KIT-64) as a Novel Orally Available Potent Inhibitor against Broad-Spectrum Mutants of c-KIT Kinase for Gastrointestinal Stromal Tumors” (J Med Chem, 2019).
Activity calls are given as the source filed them. The calls are words filed in the database; no cut-off is given here.

Tests used:
[1] = Growth inhibition of mouse BAF3 cells measured after 72 hrs by CCK8 assay; format: cell-based
[2] = molecular target: Mast/stem cell growth factor receptor Kit (Mus musculus) (UniProt P05532); assay: Inhibition of c-KIT in mouse BAF3(transformed) cells assessed as growth inhibition after 72 hrs by CCK8 assay
[3] = species on record: Mus musculus; assay: Inhibition of c-KIT V654A/V559D double mutant in mouse BAF3(transformed) cells assessed as growth inhibition after 72 hrs by CCK8 assay
[4] = species on record: Mus musculus; assay: Inhibition of c-KIT T670E mutant in mouse BAF3(transformed) cells assessed as growth inhibition after 72 hrs by CCK8 assay
[5] = species on record: Mus musculus; assay: Inhibition of c-KIT T670I/V559D double mutant in mouse BAF3(transformed) cells assessed as growth inhibition after 72 hrs by CCK8 assay
[6] = species on record: Mus musculus; assay: Inhibition of c-KIT S709F mutant in mouse BAF3(transformed) cells assessed as growth inhibition after 72 hrs by CCK8 assay
[7] = species on record: Mus musculus; assay: Inhibition of c-KIT D816E mutant in mouse BAF3(transformed) cells assessed as growth inhibition after 72 hrs by CCK8 assay
[8] = species on record: Mus musculus; assay: Inhibition of c-KIT D820G mutant in mouse BAF3(transformed) cells assessed as growth inhibition after 72 hrs by CCK8 assay
[9] = Growth inhibition of human GIST48B cells after 72 hrs by CCK8 assay; format: functional
[10] = Antitumor activity against mouse BAF3(transformed) cells harboring c-KIT T670I mutant implanted in BALB/c nu mouse assessed as tumor growth inhibition at 40 mg/kg/day, po administered via gavage for 11 days relative to control; format: functional; details: 264 h, read-out: TGI
[11] = tested on: GISTT1; format: functional, Homo sapiens; details: for inhibition in vivo at 20 mg/kg/day: Mus musculus, GISTT1, po, 672 h, read-out: TGI
[12] = tested on: Mast/stem cell growth factor receptor Kit (Homo sapiens), P10721 [V559D]; details: Mus musculus
Description: Inhibition of c-KIT V559D mutant in mouse BAF3(transformed) cells assessed as growth inhibition after 72 hrs by CCK8 assay

[13] = tested on: Mast/stem cell growth factor receptor Kit (Homo sapiens), P10721 [D816H]; details: Mus musculus
Description: Inhibition of c-KIT D816H mutant in mouse BAF3(transformed) cells assessed as growth inhibition after 72 hrs by CCK8 assay

[14] = tested on: Mast/stem cell growth factor receptor Kit (Homo sapiens), P10721 [D816V]; details: Mus musculus
Description: Inhibition of c-KIT D816V mutant in mouse BAF3(transformed) cells assessed as growth inhibition after 72 hrs by CCK8 assay

[15] = tested on: Mast/stem cell growth factor receptor Kit (Homo sapiens), P10721 [D820E]; details: Mus musculus
Description: Inhibition of c-KIT D820E mutant in mouse BAF3(transformed) cells assessed as growth inhibition after 72 hrs by CCK8 assay

[16] = tested on: Mast/stem cell growth factor receptor Kit (Homo sapiens), P10721 [D820Y]; details: Mus musculus
Description: Inhibition of c-KIT D820Y mutant in mouse BAF3(transformed) cells assessed as growth inhibition after 72 hrs by CCK8 assay

[17] = tested on: Mast/stem cell growth factor receptor Kit (Homo sapiens), P10721 [A829P]; details: Mus musculus
Description: Inhibition of c-KIT A829P mutant in mouse BAF3(transformed) cells assessed as growth inhibition after 72 hrs by CCK8 assay

[18] = tested on: Mast/stem cell growth factor receptor Kit (Homo sapiens), P10721 [UNDEFINED MUTATION]; details: GISTT1, 0.1 uM
Description: Inhibition of c-KIT 560 to 578 deletion/T670I mutant in human GISTT1 cells assessed as reduction in c-KIT autophosphorylation at Y719 residue at 0.1 uM measured after 2 hrs by Western blot analysis

[19] = tested on: Mast/stem cell growth factor receptor Kit (Homo sapiens), P10721 [UNDEFINED MUTATION]; details: 0.1 uM
Description: Inhibition of c-KIT 560 to 578 deletion/T670I mutant in human GIST5R cells assessed as reduction in c-KIT autophosphorylation at Y823 residue at 0.1 uM measured after 2 hrs by Western blot analysis

[20] = tested on: Mast/stem cell growth factor receptor Kit (Homo sapiens), P10721 [UNDEFINED MUTATION]; details: GISTT1, 0.1 uM; remark: listed apart in the source
Description: Inhibition of c-KIT 560 to 578 deletion/T670I mutant in human GISTT1 cells assessed as reduction in AKT phosphorylation at T308 residue at 0.1 uM measured after 2 hrs by Western blot analysis

[21] = tested on: Mast/stem cell growth factor receptor Kit (Homo sapiens), P10721 [UNDEFINED MUTATION]; details: GISTT1, 0.1 uM; remark: listed apart in the source
Description: Inhibition of c-KIT 560 to 578 deletion/T670I mutant in human GISTT1 cells assessed as reduction in pS6 phosphorylation at S236 residue at 0.1 uM measured after 2 hrs by Western blot analysis

[22] = tested on: Mast/stem cell growth factor receptor Kit (Homo sapiens), P10721 [UNDEFINED MUTATION]; details: GISTT1, 0.1 uM; remark: listed apart in the source
Description: Inhibition of c-KIT 560 to 578 deletion/T670I mutant in human GISTT1 cells assessed as reduction in ERK phosphorylation at T202 residue at 0.1 uM measured after 2 hrs by Western blot analysis

[23] = Toxicity in BALB/c nu mouse implanted with mouse BAF3(transformed) cells harboring c-KIT T670I mutant assessed as change in body weight at 40 to 100 mg/kg/day, po administered via gavage for 11 days measured daily during compound dosing; format: organism-based; details: in vivo, 264 h
[24] = tested on: Mus musculus; assay: Antitumor activity against mouse BAF3(transformed) cells harboring c-KIT D820G mutant implanted in BALB/c nu mouse assessed as tumor growth inhibition administered via oral gavage for 9 days; format: functional
[25] = molecular target: Vascular endothelial growth factor receptor 3 (Homo sapiens) (UniProt P35916); assay: Binding affinity to wild-type human partial length FLT4 (E821 to E1196 residues) expressed in bacterial expression system assessed as residual binding level at 1 uM by Kinomescan method relative to control
[26] = molecular target: Serine/threonine-protein kinase 10 (Homo sapiens) (UniProt O94804); assay: Binding affinity to wild-type human partial length LOK (E16 to V314 residues) expressed in bacterial expression system assessed as residual binding level at 1 uM by Kinomescan method relative to control
[27] = molecular target: Epithelial discoidin domain-containing receptor 1 (Homo sapiens, UniProt Q08345); assay: Inhibition of human GST-tagged DDR1 catalytic domain (440 to 876 residues) expressed in baculovirus expression system by Lanthascreen Eu-binding assay
[28] = molecular target: Platelet-derived growth factor receptor alpha (Mus musculus) (UniProt P26618); assay: Inhibition of PDGFRA in mouse BAF3(transformed) cells assessed as growth inhibition after 72 hrs by CCK8 assay
[29] = molecular target: RAC-alpha serine/threonine-protein kinase (Homo sapiens) (UniProt P31749); format: cell-based; details: GISTT1
[30] = tested on: GISTT1; format: functional, cell-based; details: Homo sapiens
[31] = tested on: GISTT1; format: functional, cell-based; details: Homo sapiens; remark: listed apart in the source
[32] = tested on: GISTT1; format: functional, cell-based; details: Homo sapiens; remark: listed apart in the source
[33] = molecular target: Platelet-derived growth factor receptor alpha (Homo sapiens, UniProt P16234); format: cell-based; details: GISTT1
[34] = Tmax in Sprague-Dawley rat at 10 mg/kg, po by LC-MS/MS analysis; format: ADME, organism-based; details: in vivo
[35] = Cmax in Sprague-Dawley rat at 10 mg/kg, po by LC-MS/MS analysis; format: ADME, organism-based; design: dose 10 mg/kg, route oral; details: in vivo
[36] = Oral bioavailability in Sprague-Dawley rat at 10 mg/kg by LC-MS/MS analysis; format: ADME, organism-based; details: in vivo
[37] = Antitumor activity against mouse BAF3(transformed) cells harboring c-KIT D820G mutant implanted in BALB/c nu mouse assessed as tumor growth inhibition at 80 mg/kg/day, po administered via gavage for 9 days relative to control; format: functional; details: 216 h, read-out: TGI
[38] = tested on: Mus musculus; assay: Antitumor activity against mouse BAF3(transformed) cells harboring c-KIT Y823D mutant implanted in BALB/c nu mouse assessed as tumor growth inhibition administered via oral gavage for 9 days; format: functional
[39] = tested on: GISTT1; format: functional, Homo sapiens
[40] = tested on: GISTT1; format: functional
[41] = tested on: Mast/stem cell growth factor receptor Kit (Homo sapiens), P10721 [V559A]; details: Mus musculus
Description: Inhibition of c-KIT V559A mutant in mouse BAF3(transformed) cells assessed as growth inhibition after 72 hrs by CCK8 assay

[42] = tested on: Mast/stem cell growth factor receptor Kit (Homo sapiens), P10721 [UNDEFINED MUTATION]
Description: Inhibition of c-KIT 560 to 578 deletion/T670I mutant in human GIST5R cells assessed as growth inhibition after 72 hrs by CCK8 assay

Mast/stem cell growth factor receptor Kit (Homo sapiens), P10721 [UNDEFINED MUTATION], sequence (P10721 whole entry, looked up, stated change not applied): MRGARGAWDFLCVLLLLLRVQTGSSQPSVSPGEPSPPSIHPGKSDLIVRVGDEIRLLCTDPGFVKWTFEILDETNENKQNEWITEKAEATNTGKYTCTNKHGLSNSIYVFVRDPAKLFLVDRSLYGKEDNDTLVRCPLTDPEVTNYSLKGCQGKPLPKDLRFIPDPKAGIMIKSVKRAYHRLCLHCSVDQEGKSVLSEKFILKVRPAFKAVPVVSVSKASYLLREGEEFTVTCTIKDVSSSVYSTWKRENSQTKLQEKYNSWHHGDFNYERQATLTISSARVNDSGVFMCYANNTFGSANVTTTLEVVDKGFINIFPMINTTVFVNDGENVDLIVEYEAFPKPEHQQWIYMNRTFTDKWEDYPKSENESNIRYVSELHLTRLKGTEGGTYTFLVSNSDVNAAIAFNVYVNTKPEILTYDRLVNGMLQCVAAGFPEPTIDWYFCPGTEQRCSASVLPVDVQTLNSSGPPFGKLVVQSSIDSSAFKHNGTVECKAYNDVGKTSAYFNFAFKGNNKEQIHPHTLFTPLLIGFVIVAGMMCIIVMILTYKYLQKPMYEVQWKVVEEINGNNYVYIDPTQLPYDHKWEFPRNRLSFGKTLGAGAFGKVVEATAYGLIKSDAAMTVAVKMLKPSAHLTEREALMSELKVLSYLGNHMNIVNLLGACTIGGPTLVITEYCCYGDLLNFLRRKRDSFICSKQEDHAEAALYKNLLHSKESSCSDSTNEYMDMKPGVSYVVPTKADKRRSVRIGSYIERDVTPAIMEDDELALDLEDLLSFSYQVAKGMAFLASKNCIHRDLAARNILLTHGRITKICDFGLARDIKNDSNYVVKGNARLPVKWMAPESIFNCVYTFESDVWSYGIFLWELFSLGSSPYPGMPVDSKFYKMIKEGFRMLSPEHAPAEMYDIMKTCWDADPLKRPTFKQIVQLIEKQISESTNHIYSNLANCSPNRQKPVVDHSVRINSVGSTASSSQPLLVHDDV
Mast/stem cell growth factor receptor Kit (Homo sapiens), P10721 [A829P], sequence (P10721 whole entry A829P): as the sequence (P10721 whole entry, looked up, stated change not applied) above, with A829P counted along it
Mast/stem cell growth factor receptor Kit (Homo sapiens), P10721 [D820Y], sequence (P10721 whole entry D820Y): as the sequence (P10721 whole entry, looked up, stated change not applied) above, with D820Y counted along it
Mast/stem cell growth factor receptor Kit (Homo sapiens), P10721 [V559D], sequence (P10721 whole entry V559D): as the sequence (P10721 whole entry, looked up, stated change not applied) above, with V559D counted along it
Mast/stem cell growth factor receptor Kit (Mus musculus), sequence (P05532 whole entry): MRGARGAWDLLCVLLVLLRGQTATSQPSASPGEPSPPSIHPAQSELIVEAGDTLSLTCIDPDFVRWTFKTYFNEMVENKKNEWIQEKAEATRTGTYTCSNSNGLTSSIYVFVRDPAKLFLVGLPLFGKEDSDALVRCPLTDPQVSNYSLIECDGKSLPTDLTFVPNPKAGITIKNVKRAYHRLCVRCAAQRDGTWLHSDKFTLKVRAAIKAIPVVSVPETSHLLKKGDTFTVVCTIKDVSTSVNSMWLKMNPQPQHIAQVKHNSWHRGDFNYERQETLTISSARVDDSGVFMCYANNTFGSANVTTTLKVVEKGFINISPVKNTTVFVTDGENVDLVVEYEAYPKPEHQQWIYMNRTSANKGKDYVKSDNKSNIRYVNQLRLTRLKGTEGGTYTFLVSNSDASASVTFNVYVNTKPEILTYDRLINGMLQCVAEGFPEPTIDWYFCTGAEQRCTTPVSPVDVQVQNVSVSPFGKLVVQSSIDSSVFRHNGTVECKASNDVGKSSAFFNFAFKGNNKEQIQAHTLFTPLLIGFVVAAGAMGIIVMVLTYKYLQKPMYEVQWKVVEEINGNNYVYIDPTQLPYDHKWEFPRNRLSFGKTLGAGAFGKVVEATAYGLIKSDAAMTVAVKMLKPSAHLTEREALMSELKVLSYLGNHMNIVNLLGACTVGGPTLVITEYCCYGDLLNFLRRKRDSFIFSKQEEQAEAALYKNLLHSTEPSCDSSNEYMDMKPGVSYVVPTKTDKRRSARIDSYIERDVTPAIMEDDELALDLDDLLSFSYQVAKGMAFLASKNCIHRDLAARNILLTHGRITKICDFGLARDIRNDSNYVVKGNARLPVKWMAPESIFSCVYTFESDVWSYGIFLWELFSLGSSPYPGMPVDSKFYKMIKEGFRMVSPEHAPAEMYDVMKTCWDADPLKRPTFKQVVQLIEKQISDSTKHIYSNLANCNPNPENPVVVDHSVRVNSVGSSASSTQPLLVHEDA

SMILES: CCN(CC)CCNC(=O)c1c(C)[nH]c(/C=C2\C(=O)Nc3ccc(F)cc32)c1C [SUNITINIB]
- GI50 at 72 h [1]: 1.01 µM
- GI50 [2]: 3 nM
- GI50 [3]: 19 nM
- GI50 [4]: 89 nM
- GI50 [5]: 12 nM
- GI50 [6]: 28 nM
- GI50 [7]: 59 nM
- GI50 [8]: 389 nM
- GI50 [9]: 740 nM
- inhibition in vivo at 40 mg/kg/day [10]: 96.7%
- inhibition in vivo at 20 mg/kg/day [11]: 93.6%
- GI50 [12]: 1 nM
- GI50 [13]: 315 nM
- GI50 [14]: 1720 nM
- GI50 [15]: 93 nM
- GI50 [16]: 172 nM
- GI50 [17]: 18 nM
- inhibition [18]: Active
- inhibition [19]: Active
- inhibition [20]: Active
- inhibition [21]: Active
- inhibition [22]: Active

SMILES: COc1cc2nccc(Oc3ccc(NC(=O)Cc4ccc(Cl)c(C(F)(F)F)c4)cc3)c2cc1OC
- Activity [23]: Non-Toxic
- TGI [24]: Dose-dependent effect
- GI50 at 72 h [1]: 5.97 µM
- GI50 [2]: 1 nM
- GI50 [3]: 42 nM
- GI50 [4]: 71 nM
- GI50 [5]: 45 nM
- GI50 [6]: 17 nM
- GI50 [7]: 16 nM
- GI50 [8]: 9 nM
- Activity [25]: < 1%
- Activity [26]: < 1%
- IC50 [27]: 135 nM
- GI50 [28]: 1 nM
- GI50 [9]: 1370 nM
- inhibition [29]: Active
- Activity [30]: Dose-dependent effect
- Activity [31]: Dose-dependent effect
- Activity [32]: Dose-dependent effect
- inhibition [33]: Active
- Tmax [34]: 9 h
- Cmax [35]: 1640 ng/mL
- bioavailability [36]: 50%
- inhibition in vivo at 40 mg/kg/day [10]: 90.2%
- inhibition in vivo at 80 mg/kg/day [37]: 92.7%
- TGI [38]: Dose-dependent effect
- Activity [39]: 0.14 g
- TGI ([11]; Homo sapiens, 20 mg/kg): Dose-dependent effect
- inhibition in vivo at 20 mg/kg/day [11]: 59.4%
- TGI ([40]; Homo sapiens, 40 mg/kg): Dose-dependent effect
- inhibition in vivo at 40 mg/kg/day ([40]; Mus musculus, GISTT1, po, 672 h, read-out: TGI): 76.4%
- GI50 [41]: 21 nM
- GI50 [12]: 6 nM
- GI50 [13]: 97 nM
- GI50 [14]: 1730 nM
- GI50 [15]: 1 nM
- GI50 [16]: 3 nM
- GI50 [17]: 22 nM
- GI50 [42]: 73 nM
